Source: EP4692086A1, “ANTICOAGULATION REVERSAL AGENT, AND PREPARATION METHOD THEREFOR AND USE THEREOF” (Shaanxi Micot Pharmaceutical Technology Co., Ltd., priority 2023, dated 2024)

Assays:
Format in all cases: in vivo, SD rats
warfarin-induced rats [1] = assay: Hepatic laceration hemorrhage model, antagonizing warfarin; settings: for Hepatic Laceration Bleeding Loss: jugular vein injection, bleeding loss over 30 min; for Inhibition Rate: hepatic laceration bleeding loss, vs Vehicle (warfarin)
Protocol: Hepatic laceration hemorrhage model: In all groups except for Control group and Compound 1 20 mg/kg+N.S. control group, SD rats were administered warfarin by oral gavage once daily for 3 consecutive days. 30 min after the final administration, the rats were injected with 10% chloral hydrate via intraperitoneal injection. The anaesthetized animals were placed on an electric heating blanket preheated to 37°C. Jugular vein was isolated and cannulated within 30 min. Aspirin was administered and 30 min later, test substances were injected via the jugular vein. 5 min after injection, the abdominal cavity was opened, and 3 standard incisions, each with a length of 1 cm and a depth of 2 mm, were made on the liver. Blood flowing from the liver was absorbed with pre-weighed dry cotton, and bleeding loss (BL) over 30 min was recorded.

heparin-induced rats [2] = assay: Tail transection hemorrhage model, antagonizing heparin; settings: bleeding loss over 15 min
Protocol: (§1) Tail transection hemorrhage model: […] The anaesthetized animals were placed on an electric heating blanket preheated to 37°C. Jugular vein was isolated and cannulated within 30 min. Normal saline or drug was injected via the jugular vein. 5 min after injection, a transection was made 5 mm away from the tip of the rat's tail. Bleeding loss (BL) over 15 min was recorded. Temperatures including room temperature and water bath temperature were strictly controlled throughout the experiment.

enoxaparin-induced rats [3] = assay: Tail transection hemorrhage model, antagonizing enoxaparin; settings: bleeding loss over 15 min
Protocol: as §1

enoxaparin-induced rats [4] = assay: Hepatic laceration hemorrhage model, antagonizing enoxaparin; settings: for Hepatic Laceration Bleeding Loss: bleeding loss over 30 min; for Inhibition Rate: hepatic laceration bleeding loss, vs Vehicle (enoxaparin)
warfarin-induced rats [5] = assay: Tail transection hemorrhage model, antagonizing warfarin (bleeding loss and WBCT); settings: for Tail Transection Bleeding Loss: jugular vein injection, bleeding loss over 15 min
Protocol: Tail transection hemorrhage model: In all groups except for Control group and Compound 1 20 mg/kg+N.S. control group, SD rats were administered warfarin by oral gavage once daily for 3 consecutive days. 30 min after the final administration, the rats were injected with 10% chloral hydrate via intraperitoneal injection. The anaesthetized animals were placed on an electric heating blanket preheated to 37°C. Jugular vein was isolated and cannulated within 30 min. Normal saline or drug was injected via the jugular vein. 5 min after injection, a transection was made 5 mm away from the tip of the rat's tail. Bleeding loss (BL) over 15 min was recorded. At the end of the experiment, blood was collected from the abdominal cavity and WBCT was measured. Temperatures including room temperature and water bath temperature were strictly controlled throughout the experiment.

heparin-induced rats [6] = assay: Hepatic laceration hemorrhage model, antagonizing heparin; settings: for Hepatic Laceration Bleeding Loss: bleeding loss over 30 min
[7] = 10 mg/kg+heparin, listed as compound 1
[8] = 5 mg/kg+enoxaparin, listed as compound 1
[9] = 20 mg/kg+warfarin, blood collected at the end of the experiment
[10] = Rattus norvegicus, read-out: Inhibition Rate

N=C(N)NCCCC(N)C(=O)NCCCn1c(=O)c2c(ncn2CCCNC(=O)C(N)CCCNC(=N)N)n(CCCNC(=O)C(N)CCCNC(=N)N)c1=O (stereo not drawn) [Compound 1]
Hepatic Laceration Bleeding Loss (warfarin-induced rats [1]; 5 mg/kg+warfarin): 0.3029 ± 0.1189 g | Hepatic Laceration Bleeding Loss (warfarin-induced rats [1]; 10 mg/kg+warfarin): 0.2379 ± 0.1613 g | inhibited hepatic laceration bleeding loss (warfarin-induced rats [1]; 20 mg/kg+warfarin, compared to the Vehicle group): 72.1% | Hepatic Laceration Bleeding Loss (warfarin-induced rats [1]; 20 mg/kg+warfarin): 0.0784 ± 0.0346 g | Inhibition Rate (warfarin-induced rats [1]; 5 mg/kg+warfarin): -7.9 | Inhibition Rate (warfarin-induced rats [1]; 10 mg/kg+warfarin): 15.3 | Inhibition Rate (warfarin-induced rats [1]; 20 mg/kg+warfarin): 72.1 | Tail Transection Bleeding Loss (heparin-induced rats [2]; 5 mg/kg+heparin): 38.3625 ± 12.6991 mg | Tail Transection Bleeding Loss (heparin-induced rats [2]; 10 mg/kg+heparin): 19.9375 ± 22.3215 mg | Tail Transection Bleeding Loss (heparin-induced rats [2]; [7]): significantly reduced | Tail Transection Bleeding Loss (heparin-induced rats [2]; 20 mg/kg+heparin): 12.1125 ± 6.6714 mg | Tail Transection Bleeding Loss (enoxaparin-induced rats [3]; 0.2 mg/kg+enoxaparin): 0.0903 ± 0.0426 g | Tail Transection Bleeding Loss (enoxaparin-induced rats [3]; 1 mg/kg+enoxaparin): 0.0302 ± 0.0147 g | Tail Transection Bleeding Loss (enoxaparin-induced rats [3]; 5 mg/kg+enoxaparin): 0.0158 ± 0.0083 g | Tail Transection Bleeding Loss (enoxaparin-induced rats [3]; [8]): superior to the 20 mg/kg PER977 group | Hepatic Laceration Bleeding Loss (enoxaparin-induced rats [4]; 0.2 mg/kg+enoxaparin): 0.5253 ± 0.2034 g | Hepatic Laceration Bleeding Loss (enoxaparin-induced rats [4]; 1 mg/kg+enoxaparin): 0.1674 ± 0.0734 g | Hepatic Laceration Bleeding Loss (enoxaparin-induced rats [4]; 1 mg/kg+enoxaparin, listed as compound 1): significantly reduced | Hepatic Laceration Bleeding Loss (enoxaparin-induced rats [4]; 5 mg/kg+enoxaparin): 0.0490 ± 0.0184 g | Hepatic Laceration Bleeding Loss (enoxaparin-induced rats [4]; [8]): significantly reduced | Inhibition Rate (enoxaparin-induced rats [4]; 0.2 mg/kg+enoxaparin): -17.1% | Inhibition Rate (enoxaparin-induced rats [4]; 1 mg/kg+enoxaparin): 62.7% | Inhibition Rate (enoxaparin-induced rats [4]; 5 mg/kg+enoxaparin): 89.1% | WBCT (warfarin-induced rats [5]; 20 mg/kg+N.S. (no warfarin), compared to the Control group): no significant changes | WBCT (warfarin-induced rats [5]; [9]): 490 ± 99 s | WBCT (warfarin-induced rats [5]; 20 mg/kg+warfarin, blood collected at the end of the experiment, listed as compound 1): significantly shortened | Tail Transection Bleeding Loss (warfarin-induced rats [5]; 20 mg/kg+warfarin): 0.0143 ± 0.0108 g | Tail Transection Bleeding Loss (warfarin-induced rats [5]; 20 mg/kg+warfarin, listed as compound 1): significantly reduced | Hepatic Laceration Bleeding Loss (heparin-induced rats [6]; 5 mg/kg+heparin): 0.3217 ± 0.0919 g | inhibition rate for hepatic laceration bleeding loss (heparin-induced rats [6]; 10 mg/kg compound 1 (so in the source)+heparin, compared to the Vehicle group): 88.9% | Hepatic Laceration Bleeding Loss (heparin-induced rats [6]; 10 mg/kg+heparin): 0.1794+0.0966 g | Hepatic Laceration Bleeding Loss (heparin-induced rats [6]; [7]): significantly reduced | Hepatic Laceration Bleeding Loss (heparin-induced rats [6]; 20 mg/kg+heparin): 0.0560+0.0408 g

N=C(N)NCCC[C@H](N)C(=O)NCCCN1CCN(CCCNC(=O)[C@@H](N)CCCNC(=N)N)CC1 [PER977, diarginine piperazine, reference compound]
Hepatic Laceration Bleeding Loss (warfarin-induced rats [1]; 20 mg/kg+warfarin): 0.0874 ± 0.0292 g | inhibition at 20 mg/kg (warfarin-induced rats [1]; [10]): 68.9% | Tail Transection Bleeding Loss (heparin-induced rats [2]; 20 mg/kg+heparin): 17.9000 ± 11.6004 mg | Tail Transection Bleeding Loss (enoxaparin-induced rats [3]; 20 mg/kg+enoxaparin): 0.0228 ± 0.0155 g | Hepatic Laceration Bleeding Loss (enoxaparin-induced rats [4]; 20 mg/kg+enoxaparin): 0.0420 ± 0.0244 g | inhibition at 20 mg/kg (enoxaparin-induced rats [4]; [10]): 90.6% | WBCT (warfarin-induced rats [5]; [9]): 471 ± 101 s | Tail Transection Bleeding Loss (warfarin-induced rats [5]; 20 mg/kg+warfarin): 0.0276 ± 0.0123 g | Hepatic Laceration Bleeding Loss (heparin-induced rats [6]; 20 mg/kg+heparin): 0.0511 ± 0.0444 g
